These results are taken from US20260258066A1, “NOVEL RUTHENIUM COMPLEXES, METHOD OF THEIR SYNTHESIS, INTERMEDIATE COMPOUNDS USED IN THIS METHOD, METHOD OF THEIR SYNTHESIS AND THE USE OF NOVEL RUTHENIUM COMPLEXES IN OLEFIN METATHESIS REACTIONS” (UNIWERSYTET WARSZAWSKI, priority 2022, published 2026).

The data set is described as follows: Test of complex solubility in nonpolar solvents (n-hexane). As to conditions: 5 mg catalyst, n-hexane added in portions, room temperature, magnetic stirring. It counts as physicochemical. As to the method:
In a round-bottom flask equipped with a stirring bar, the catalyst (Ru-a, Ru-b, Ru-c, Ru-d, Ru-h, Ru-15, Ru-16 and Hov-II) was placed, in the amount of 5 mg of each. n-hexane was added to each of the flasks in portions, at room temperature, and the mixture was stirred using a magnetic stirrer. The Ru-a dissolved in 6 mL, and the Ru-h complex in 4 mL of the solvent. In the case of the Ru-15 complex, almost complete solubility was observed after adding 20 mL of n-hexane.

Where only a bound is given, the exact number is not on record here.

Consider `Cc1cc(C)c(N2CCN(c3c(C)cc(C)cc3C)[C]2=[Ru]([Cl])([Cl])=[CH]c2ccccc2OC(C)C)c(C)c1` [Hov-II], for which the “Volume of n-hexane in which 5 mg of the complex dissolved” value is on record as more than 20 mL.
